Reference: PubChem BioAssay AID212 (DTP/NCI, 2004)
Where “and” joins values, the source holds several entries; their conditions need not be identical. Equal entries are not always repeated. Records with an inconclusive call do not appear.

Tested on: BDF1 mice, colon carcinoma 38 sc, T/C %
Experiment: NCI In Vivo Anticancer Drug Screen. Data for tumor model Colon Carcinoma 38 (subcutaneous) in B6D2F1 (BDF1) mice
Settings: endpoint: median tumor weight (est.), higher = larger tumour
Summary of the method: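 Mice with transplanted tumors are treated with compound or vehicle. Survival or tumor size is then measured in both groups. The ratio of treated to control gives the reported figure.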

[1] = dose: 12.5 mg/kg/injection, schedule: Q07DX002 (ip), vehicle: suspension in saline
[2] = dose: 25.0 mg/kg/injection, schedule: Q07DX002 (ip), vehicle: saline
[3] = dose: 25.0 mg/kg/injection, schedule: Q07DX002 (ip), vehicle: suspension in saline
[4] = dose: 50.0 mg/kg/injection, schedule: Q07DX002 (ip), vehicle: saline
[5] = dose: 100.0 mg/kg/injection, schedule: Q07DX002 (ip), vehicle: saline
[6] = dose: 100.0 mg/kg/injection, schedule: Q07DX002 (ip), vehicle: suspension in saline
[7] = dose: 200.0 mg/kg/injection, schedule: Q07DX002 (ip), vehicle: saline

O=C(/C=C(\Cl)C(=O)NO)NO
T/C (dose: 12.5 mg/kg/injection, schedule: Q07DX002 (ip), vehicle: saline): 154 % of control
T/C [1]: 82 % of control
T/C [2]: 159 % of control
T/C [3]: 101 % of control
T/C [4]: 175 % of control
T/C [5]: 119 % of control
T/C [6]: 94 % of control

O=C(O)CC(=O)O.[NH-]CC[NH-].[Pt+2]
T/C (dose: 14.1 mg/kg/injection, schedule: Q07DX002 (ip), vehicle: dextrose): 71 % of control and 85 % of control
T/C (dose: 28.1 mg/kg/injection, schedule: Q07DX002 (ip), vehicle: dextrose): 69 % of control
T/C (dose: 28.2 mg/kg/injection, schedule: Q07DX002 (ip), vehicle: dextrose): 71 % of control and 75 % of control
T/C (dose: 56.2 mg/kg/injection, schedule: Q07DX002 (ip), vehicle: dextrose): 42 % of control

C1CN2CN3CCN(CN1C3)C2
T/C [2]: 111 % of control
T/C [5]: 166 % of control
T/C [7]: 115 % of control

CC1(O)CC23CC(O)C4(O)C(CC(O)C4(C)C)C(C)(O)C2CCC1C3O (configuration not stated)
T/C (dose: 0.25 mg/kg/injection, schedule: Q07DX002 (ip), vehicle: Klucel (hydroxypropylcellulose) (HPC)): 102 % of control
T/C (dose: 0.5 mg/kg/injection, schedule: Q07DX002 (ip), vehicle: Klucel (hydroxypropylcellulose) (HPC)): 53 % of control

[Cl][Pt+2][Cl].[NH-]CC1(C[NH-])CCC1
T/C [1]: 50 % of control

Cc1ncc(CNC(=O)N(CCCl)N=O)c(N)n1
T/C (dose: 6.25 mg/kg/injection, schedule: Q07DX003 (ip), vehicle: saline): 82 % of control
T/C (dose: 12.5 mg/kg/injection, schedule: Q07DX002 (ip), vehicle: Klucel (hydroxypropylcellulose) (HPC)): 73 % of control
T/C (dose: 12.5 mg/kg/injection, schedule: Q07DX003 (ip), vehicle: saline): 88 % of control
T/C (dose: 25.0 mg/kg/injection, schedule: Q07DX002 (ip), vehicle: Klucel (hydroxypropylcellulose) (HPC)): 32 % of control
T/C (dose: 25.0 mg/kg/injection, schedule: Q07DX003 (ip), vehicle: saline): 31 % of control

N#CC(C#N)=C/C=C/c1cccc([N+](=O)[O-])c1
T/C (dose: 6.25 mg/kg/injection, schedule: Q07DX003 (ip), vehicle: Klucel (hydroxypropylcellulose) (HPC)): 79 % of control
T/C (dose: 12.5 mg/kg/injection, schedule: Q07DX003 (ip), vehicle: Klucel (hydroxypropylcellulose) (HPC)): 77 % of control
T/C (dose: 25.0 mg/kg/injection, schedule: Q07DX003 (ip), vehicle: Klucel (hydroxypropylcellulose) (HPC)): 76 % of control
T/C (dose: 50.0 mg/kg/injection, schedule: Q07DX003 (ip), vehicle: Klucel (hydroxypropylcellulose) (HPC)): 60 % of control

COc1ccc(C(Cn2ccnc2)Sc2ccc(Cl)c(Cl)c2)cc1 (configuration not stated)
T/C (dose: 25.0 mg/kg/injection, schedule: Q07DX002 (ip), vehicle: saline with Tween-80): 63 % of control and 87 % of control
T/C (dose: 100.0 mg/kg/injection, schedule: Q07DX002 (ip), vehicle: saline with Tween-80): 114 % of control

O=C(O)C(CSC(c1ccccc1)(c1ccccc1)c1ccccc1)N=Cc1cccs1 (configuration not stated)
T/C [2]: 62 % of control
T/C [3]: 103 % of control
T/C [4]: 101 % of control
T/C (dose: 50.0 mg/kg/injection, schedule: Q07DX002 (ip), vehicle: suspension in saline): 84 % of control
T/C [5]: 87 % of control
T/C [6]: 107 % of control
T/C [7]: 51 % of control
T/C (dose: 200.0 mg/kg/injection, schedule: Q07DX002 (ip), vehicle: suspension in saline): 62 % of control

CC1=C/C(O)CC(=O)Cc2nc(co2)C(=O)N2CCC=C2C(=O)OC(C(C)C)C(C)/C=C\C(=O)NC/C=C\1 (configuration not stated)
T/C (dose: 50.0 mg/kg/injection, schedule: Q07DX002 (ip), vehicle: Klucel (hydroxypropylcellulose) (HPC)): 109 % of control
T/C (dose: 400.0 mg/kg/injection, schedule: Q07DX002 (ip), vehicle: Klucel (hydroxypropylcellulose) (HPC)): 102 % of control
T/C (dose: 800.0 mg/kg/injection, schedule: Q07DX002 (ip), vehicle: Klucel (hydroxypropylcellulose) (HPC)): 117 % of control

COC1C=CC23c4cc5c(cc4C(O)OC2CN(C)C3C1)OCO5 (configuration not stated)
T/C (dose: 18.75 mg/kg/injection, schedule: Q07DX002 (ip), vehicle: suspension in saline): 91 % of control
T/C (dose: 37.5 mg/kg/injection, schedule: Q07DX002 (ip), vehicle: suspension in saline): 82 % of control
T/C (dose: 75.0 mg/kg/injection, schedule: Q07DX002 (ip), vehicle: suspension in saline): 105 % of control
